Bridge positions count the residues as written; N and C are the ends. Square brackets hold non-standard residues; d marks the D form. Ends that are not written are not given here. Peptide text beside a SMILES is read from it. * marks the point of attachment. Palmitoyl = CCCCCCCCCCCCCCCC(=O)*; hArg = N=C(N)NCCCC[C@H](N)C(=O)O; Mpa = O=C(O)CCS
Experiments:
PAR4 [1] = biological target: T1, PAR4 (Rattus norvegicus, UniProt Q920E0); settings: rat hindpaw, carrageenan; cited from earlier work
T1 construct: host or cells: rat, in vivo
T1 sequence (Q920E0 17-395): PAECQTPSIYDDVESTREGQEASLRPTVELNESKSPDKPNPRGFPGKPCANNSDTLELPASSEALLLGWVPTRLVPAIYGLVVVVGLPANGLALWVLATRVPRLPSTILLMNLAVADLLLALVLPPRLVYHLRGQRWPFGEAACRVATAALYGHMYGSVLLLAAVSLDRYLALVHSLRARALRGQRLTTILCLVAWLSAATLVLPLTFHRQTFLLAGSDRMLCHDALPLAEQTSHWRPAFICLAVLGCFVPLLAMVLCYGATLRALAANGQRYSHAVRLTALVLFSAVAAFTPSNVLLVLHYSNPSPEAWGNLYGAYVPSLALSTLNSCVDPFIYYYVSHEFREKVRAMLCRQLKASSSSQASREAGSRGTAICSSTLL

PAR4 [2] = biological target: T2, PAR4 (Homo sapiens, UniProt Q96RI0); assay: PAC-1 binding assay, platelets stimulated with γ-thrombin; format: cell-based; settings: stimulation with 316 nM γ-thrombin; compound concentration not given
T2 construct: 60 μL of washed platelets (Tyrodes buffer containing 0.1% BSA); endogenous in cells; host or cells: washed platelets
T2 sequence (Q96RI0 18-385): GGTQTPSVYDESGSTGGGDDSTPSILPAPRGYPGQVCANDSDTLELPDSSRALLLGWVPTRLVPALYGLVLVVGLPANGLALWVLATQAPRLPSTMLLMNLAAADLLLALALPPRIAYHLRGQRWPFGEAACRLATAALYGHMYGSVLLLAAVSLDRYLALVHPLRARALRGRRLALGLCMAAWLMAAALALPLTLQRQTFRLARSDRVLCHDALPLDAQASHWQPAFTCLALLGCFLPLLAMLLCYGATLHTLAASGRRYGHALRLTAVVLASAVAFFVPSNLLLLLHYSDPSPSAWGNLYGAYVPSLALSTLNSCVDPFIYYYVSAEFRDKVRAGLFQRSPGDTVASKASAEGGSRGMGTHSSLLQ
Excerpt: Gamma-thrombin is a proteolytic product of alpha-thrombin cleavage by a serine protease. Cleavage results in the disruption of exosite I which interacts directly with the hirudin-like domain of its primary substrates fibrinogen and protease-activated receptor 1 (PAR1). As a result, gamma-thrombin selectively cleaves PAR4 in the nanomolar range, leaving PAR1 intact. See Soslau, G., Class, R., Morgan, D. A., Foster, C., Lord, S. T., Marchese, P., and Ruggeri, Z. M. (2001) Unique pathway of thrombin-induced platelet aggregation mediated by glycoprotein Ib, The Journal of biological chemistry 276, 21173-21183. Gamma-thrombin (Enzyme Research Laboratories, South Bend, Ind.) is produced by trypsin-sepharose cleavage of alpha-thrombin. To neutralize alpha-thrombin contamination, stock solutions of gamma-thrombin are preincubated with 1 unit/mL hirudin prior 100 fold dilution into the sample for platelet stimulation. This concentration of hirudin is capable of abolishing alpha-thrombin activity with no effect on the activity of gamma-thrombin. See Soslau, G., Goldenberg, S. J., Class, R., and Jameson, B. (2004) Differential activation and inhibition of human platelet thrombin receptors by structurally distinct alpha-, beta- and gamma-thrombin, Platelets 15, 155-166. Single point screens and concentration response curves are conducted with 316 nanomolar or 100 nanomolar gamma-thrombin using PAC1 and CD61p binding.
(§1) PAC-1 Binding assay: 60 μL of washed platelets (Tyrodes buffer containing 0.1% BSA) at a concentration of 0.15×10^8 platelets/mL were added to 5 mL round bottom polystyrene tubes (BD, Franklin Lakes, N.J.). FITC conjugated PAC-1 (BD Biosciences, San Jose, Calif.) antibody was diluted (to the manufacturers recommended concentration) in Tyrode's buffer containing 0.1% BSA. 40 μL of diluted antibody was added to the platelets and allowed to incubate for 5 minutes. Platelets were pre-treated with indicated concentrations of antagonist or DMSO control for 5 minutes followed by addition of PAR-1-AP (GL Biochem, Shanghai, China) or PAR-4-AP for 10 minutes. Platelet activity was quenched by the addition ice cold 1.5% paraformaldehyde followed by dilution in 1× phosphate buffered saline. The final DMSO concentration was 0.5%. Platelets were stored up to 18 hours at 4° C. before flow cytometric analysis. Analysis was carried out on a BD FACS Canto II (Franklin Lakes, N.J.). Fluorescent intensity was determined for 100,000 events within the platelet gate. Data was collected and analyzed via FACS DiVa software. Flow cytometric data analysis was conducted by the following method. The DMSO-vehicle treated control was subtracted from each data point. 100% response for PAR-4-AP was determined for each individual as the DMSO treated control stimulated with either 200 μM PAR-4-AP, or 20 μM PAR-1-AP. Data was plotted in GraphPad PRISM v.5.0. For compounds with a notable reduction in PAC-1 binding response, a dose response curves and subsequent IC50 values were generated using the inhibitory sigmoidal dose response ‘variable slope’ parameter. PAR-4 results were plotted as mean±SEM.

PAR4 [3] = biological target: T2, PAR4; assay: PAC-1 binding assay, washed platelets stimulated with PAR-4-AP (flow cytometry); format: cell-based; settings: PAR-4-AP stimulation, dose response curve
Protocol: as §1

influenza viruses = settings: mice treated with GPIIbIIIa antagonist; cited from earlier work
PAR4 [4] = biological target: T1, PAR4; settings: rat myocardial ischemia/reperfusion; cited from earlier work
PAR4 [5] = biological target: T3, PAR4 (Mus musculus, UniProt O88634); settings: cited from earlier work
T3 construct: PAR4-AP, or Trypsin injected pleural cavities of mice; host or cells: mouse, in vivo
T3 sequence (O88634 17-396): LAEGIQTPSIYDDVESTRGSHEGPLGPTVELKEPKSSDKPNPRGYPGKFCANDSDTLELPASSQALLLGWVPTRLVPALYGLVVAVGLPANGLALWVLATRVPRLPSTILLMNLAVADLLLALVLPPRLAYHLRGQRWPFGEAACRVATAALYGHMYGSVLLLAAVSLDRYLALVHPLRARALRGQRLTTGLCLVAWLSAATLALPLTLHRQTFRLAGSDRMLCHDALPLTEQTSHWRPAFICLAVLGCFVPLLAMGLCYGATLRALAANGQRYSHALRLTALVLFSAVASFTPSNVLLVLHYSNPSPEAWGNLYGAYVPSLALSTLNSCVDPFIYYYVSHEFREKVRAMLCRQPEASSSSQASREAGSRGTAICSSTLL

PAR1 [6] = biological target: T4, PAR1 (Homo sapiens, UniProt P25116); settings: cited from earlier work
T4 construct: host or cells: patients, in vivo
T4 sequence (P25116 22-425): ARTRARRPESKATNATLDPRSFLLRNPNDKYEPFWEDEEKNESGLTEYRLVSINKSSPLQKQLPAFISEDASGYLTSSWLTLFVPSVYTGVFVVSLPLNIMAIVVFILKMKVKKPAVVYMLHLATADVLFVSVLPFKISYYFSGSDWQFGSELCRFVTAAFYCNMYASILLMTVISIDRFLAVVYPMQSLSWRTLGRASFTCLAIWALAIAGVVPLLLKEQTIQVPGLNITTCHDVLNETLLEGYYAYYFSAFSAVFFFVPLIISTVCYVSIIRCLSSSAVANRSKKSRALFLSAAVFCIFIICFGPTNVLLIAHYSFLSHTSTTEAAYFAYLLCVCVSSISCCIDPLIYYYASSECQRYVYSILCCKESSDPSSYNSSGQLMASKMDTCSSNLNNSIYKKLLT

PAR1 [7] = biological target: T4, PAR1; settings: cited from earlier work; remark: listed apart in the source
[8] = biological target: T5, protease-activated receptor type 4 (PAR4) (Homo sapiens, UniProt Q96RI0); settings: abstract of Lee et al. 2001; cited from earlier work
T5 construct: host or cells: platelets
T5 sequence (Q96RI0 18-385): T2 sequence (Q96RI0 18-385)

[9] = patients with myocardial infarction, added to standard anti-platelet therapy
[10] = patients with peripheral artery disease
[11] = patients with prior ischemic stroke, added to standard of care
[12] = non-ST-segment ACS patients undergoing CABG
[13] = non-ST-segment elevation ACS patients

For “palmitoly-SGRRYGHALR (Palmitoyl-SGRRYGHALR) [palmitoylated peptide named beside P4pal-10 in the carrageenan model]”, the “edema and granulocyte recruitment” value (PAR4 [1]) is listed as “reduced edema and granulocyte recruitment”.

For `COc1nn2cc(-c3nccs3)nc2s1` [Example B7], the “γ-thrombin % Max PAC-1 binding (316 nM)” value (PAR4 [2]) was 98%.

For `COc1nn2cc(-c3sc(-c4ccccc4)nc3C)nc2s1` [Example B6], the IC50 (PAR4 [3]) was 69.8 nM and the “γ-thrombin % Max PAC-1 binding (316 nM)” value (PAR4 [2]) was 92%.

In the case of `COc1nn2cc(-c3cc(-c4ccc(Cl)cc4)no3)nc2s1` [Example B2], the IC50 (PAR4 [3]) is reported as 1930 nM and the “γ-thrombin % Max PAC-1 binding (316 nM)” value (PAR4 [2]) is reported as 94%.

With `COc1nn2cc(-c3cnn(-c4ccccc4)c3C)nc2s1` [Example B5] the IC50 (PAR4 [3]) was 1530 nM and the “γ-thrombin % Max PAC-1 binding (316 nM)” value (PAR4 [2]) was 95%.

In the case of `N=C(N)NCCCC[C@@H]1NC(=O)CCSSC[C@@H](C(N)=O)NC(=O)[C@@H]2CCCN2C(=O)[C@H](Cc2c[nH]c3ccccc23)NC(=O)[C@H](CC(=O)O)NC(=O)CNC1=O` [eptifibatide] ([Mpa][hArg]GDWPC-NH2; disulfide 1-7), the “protection from death caused by influenza viruses” value (influenza viruses) is given as “had the same effect”.

In the case of trans-cinnamoyl-YPGKF [tcY-NH2], the infarct size (PAR4 [4]) is listed as “reduced infarct size”, the neutrophil migration (PAR4 [5]; CXCL8, carrageenan, PAR4-AP or Trypsin injected pleural cavities of mice) is listed as “inhibit neutrophil migration” and the eosinophil recruitment (PAR4 [5]; after intrapleural injection of Eotaxin-1) is listed as “blocks eosinophil recruitment”.

For `COc1nn2cc(-c3csc4ccccc34)nc2s1` [Example B3], the IC50 (PAR4 [3]) was 458 nM and the “γ-thrombin % Max PAC-1 binding (316 nM)” value (PAR4 [2]) was 99%.

For `CCOC(=O)N[C@@H]1CC[C@@H]2[C@@H](C1)C[C@H]1C(=O)O[C@H](C)[C@H]1[C@H]2/C=C/c1ccc(-c2cccc(F)c2)cn1` [Vorapaxar], the “moderate to severe bleeding” value (PAR1 [6]; [9]) is listed as “significant increase”, the “risk of cardiovascular death or ischaemic events” value (PAR1 [6]; [9]) is listed as “reduced the risk” and the “limb ischemia and peripheral revascularization” value (PAR1 [6]; [10]) is listed as “significant beneficial effects”. For the same compound, the risk of bleeding (PAR1 [6]; [10]) was “increased risk of bleeding”, the major vascular events (PAR1 [6]; [11]) was “without improvement” and the “risk of intracranial hemorrhage” value (PAR1 [6]; [11]) was “increased the risk”. For the same compound, the ischemic events (PAR1 [7]; [12]) was “significant reduction”, the “major CABG-related bleeding” value (PAR1 [7]; [12]) was “no significant increase” and the primary composite endpoint (PAR1 [7]; [13]) was “did not significantly reduce”. The “risk of major bleeding, including intracranial hemorrhage” value (PAR1 [7]; [13]) was “significant increase”.

In the case of `COc1nn2cc(-c3c(-c4ccccc4)noc3C)nc2s1` [Example B4], the “γ-thrombin % Max PAC-1 binding (316 nM)” value (PAR4 [2]) is reported as 93%.

In the case of `CCOC(=O)c1ccc(-c2nn(Cc3ccccc3)c3ccccc23)cc1`, the “inhibition of PAR4-dependent platelet activation” value [8] is given as “selective and potent inhibitor”.

With `COc1nn2cc(-c3ccc(-c4ccccc4)s3)nc2s1` [Example B8, 2-Methoxy-6-(5-phenylthiophen-2-yl)imidazo[2,1-b][1,3,4]thiadiazole] the IC50 (PAR4 [3]) was 7.46 nM and the “γ-thrombin % Max PAC-1 binding (316 nM)” value (PAR4 [2]) was 78%.

With `COC(=O)c1[nH]c2ccc(OC(F)(F)F)cc2c1-c1cn2nc(OC)sc2n1` [Example B1, Methyl 3-(2-methoxyimidazo[2,1-b][1,3,4]thiadiazol-6-yl)-5-(trifluoromethoxy)-1H-indole-2-carboxylate] the IC50 (PAR4 [3]) was 2110 nM and the “γ-thrombin % Max PAC-1 binding (316 nM)” value (PAR4 [2]) was 100%.
